16 compounds from US20140148443A1, “Novel Imidazolines as dual inhibitors of MDM2 and MDMX” (priority 2012, published 2014) can be followed below.

Assay [1] has as its target recombinant GST-tagged MDM2 (Homo sapiens, UniProt Q00987). Nature of the assay: HTRF assay of interaction between p53 peptide and GST-tagged MDM2. The note with it: inhibition of GST-MDM2 (160 ng/ml) binding to biotinylated p53-peptide. In a few lines: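 Compounds were preincubated with 160 ng/ml GST-MDM2 and 90 nM N-terminally biotinylated p53-like peptide (final) in 20 mM TBS, 0.02% BSA, 1 mM DTT for 1 h at 37 °C. Eu-anti-GST antibody and streptavidin-APC were added for 30 min at room temperature; binding read as TR-FRET at 665 and 615 nm.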
A general note: Time-resolved FRET reads energy transfer from a long-lived donor to a nearby acceptor.

The target in assay [2] is T1, GST-tagged MDMX (Homo sapiens, UniProt O15151).
T1 sequence (O15151 1-490): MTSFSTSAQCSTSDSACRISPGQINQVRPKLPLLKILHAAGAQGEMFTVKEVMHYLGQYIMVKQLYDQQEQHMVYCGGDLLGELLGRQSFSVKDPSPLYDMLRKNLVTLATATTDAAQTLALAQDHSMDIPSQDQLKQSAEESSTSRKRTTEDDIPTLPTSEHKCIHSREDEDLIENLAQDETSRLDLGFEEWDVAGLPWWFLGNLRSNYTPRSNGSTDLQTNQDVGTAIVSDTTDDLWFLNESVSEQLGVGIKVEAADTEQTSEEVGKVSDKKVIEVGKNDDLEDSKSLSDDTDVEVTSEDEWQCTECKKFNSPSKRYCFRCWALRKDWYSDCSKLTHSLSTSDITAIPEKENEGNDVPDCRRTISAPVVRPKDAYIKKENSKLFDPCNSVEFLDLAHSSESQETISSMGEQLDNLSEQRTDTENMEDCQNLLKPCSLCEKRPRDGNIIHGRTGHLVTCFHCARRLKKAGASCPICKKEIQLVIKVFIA
Description: HTRF binding assay of GST-tagged MDMX to p53 peptide.

Sequence of recombinant GST-tagged MDM2 (Q00987 whole entry): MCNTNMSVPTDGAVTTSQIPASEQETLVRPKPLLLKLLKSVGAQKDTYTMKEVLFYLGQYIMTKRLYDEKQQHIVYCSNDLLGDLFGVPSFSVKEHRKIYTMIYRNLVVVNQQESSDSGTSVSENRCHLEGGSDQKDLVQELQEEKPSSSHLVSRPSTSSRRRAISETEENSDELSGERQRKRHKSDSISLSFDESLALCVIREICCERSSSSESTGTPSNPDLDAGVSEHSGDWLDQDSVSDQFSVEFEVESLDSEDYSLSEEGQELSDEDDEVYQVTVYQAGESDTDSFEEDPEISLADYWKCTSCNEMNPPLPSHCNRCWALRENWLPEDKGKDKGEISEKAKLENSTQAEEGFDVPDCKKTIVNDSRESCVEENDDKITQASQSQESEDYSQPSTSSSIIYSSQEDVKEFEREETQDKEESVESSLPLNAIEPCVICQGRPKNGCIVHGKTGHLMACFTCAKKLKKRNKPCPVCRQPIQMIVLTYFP

In general, IC50 refers to the point on the concentration scale where inhibition reaches its midpoint. On to `CCOc1cc(Cl)c(S(=O)(=O)NC(C)(C)C)cc1C1=N[C@@](C)(c2ccc(Cl)cc2)[C@@](C)(c2ccc(Cl)cc2)N1C(=O)N1CCN(CCC(O)CO)CC1` (stereo partly drawn) [Example 45, 5-{(4S,5R)-4,5-Bis-(4-chloro-phenyl)-1-[4-(3,4-dihydroxy-butyl)-piperazine-1-carbonyl]-4,5-dimethyl-4,5-dihydro-1H-imidazol-2-yl}-N-tert-butyl-2-chloro-4-ethoxy-benzene sulfonamide], for which the IC50 came out at 12.9 nM in assay [1] and 1130 nM in assay [2].

`CCOc1cc(Cl)c(S(=O)(=O)NC(C)(C)C)cc1C1=N[C@@](C)(c2ccc(Cl)cc2)[C@@](C)(c2ccc(Cl)cc2)N1C(=O)N1CCN(CCOCCO)CC1` [Example 46, 5-((4S,5R)-4,5-Bis-(4-chloro-phenyl)-1-{4-[2-(2-hydroxy-ethoxy)-ethyl]-piperazine-1-carbonyl}-4,5-dimethyl-4,5-dihydro-1H-imidazol-2-yl)-N-tert-butyl-2-chloro-4-ethoxy-benzenesulfonamide]: the values for the IC50 in assay [1] and in assay [2] were 12.2 nM and 1810 nM, respectively.

For `CCOc1cc(Cl)c(S(=O)(=O)NC(C)(C)C)cc1C1=N[C@@](C)(c2ccc(Cl)cc2)[C@@](C)(c2ccc(Cl)cc2)N1C(=O)N1CCN(CC(=O)N2CCN(C)CC2)CC1` [Example 47, 5-((4S,5R)-4,5-Bis-(4-chloro-phenyl)-4,5-dimethyl-1-{4-[2-(4-methyl-piperazin-1-yl)-2-oxo-ethyl]-piperazine-1-carbonyl}-4,5-dihydro-1H-imidazol-2-yl)-N-tert-butyl-2-chloro-4-ethoxy-benzenesulfonamide], the IC50 in assay [1] came to 6.6 nM; in assay [2], 1080 nM.

On to `CCOc1cc(Cl)c(S(=O)(=O)NC(C)(C)C)cc1C1=N[C@@](C)(c2ccc(Cl)cc2)[C@@](C)(c2ccc(Cl)cc2)N1C(=O)N1CCN(CC(=O)NCCOC)CC1` [Example 49, 2-{4-[(4S,5R)-2-(5-tert-Butylsulfamoyl-4-chloro-2-ethoxy-phenyl)-4,5-bis-(4-chloro-phenyl)-4,5-dimethyl-4,5-dihydro-imidazole-1-carbonyl]-piperazin-1-yl}-N-(2-methoxy-ethyl)-acetamide], for which the IC50 came out at 8.7 nM in assay [1] and 1340 nM in assay [2].

Regarding `CCOc1cc(Cl)c(S(=O)(=O)NC(C)(C)C)cc1C1=N[C@@](C)(c2ccc(Cl)cc2)[C@@](C)(c2ccc(Cl)cc2)N1C(=O)N1CCN(CCC(N)=O)CC1` [Example 50, 3-{4-[(4S,5R)-2-(5-tert-Butylsulfamoyl-4-chloro-2-ethoxy-phenyl)-4,5-bis-(4-chloro-phenyl)-4,5-dimethyl-4,5-dihydro-imidazole-1-carbonyl]-piperazin-1-yl}-propionamide], the IC50 in assay [1] was found to be 9.3 nM; in assay [2], 1450 nM.

As to `CCOc1cc(Cl)c(S(=O)(=O)NC(C)(C)C)cc1C1=N[C@@](C)(c2ccc(Cl)cc2)[C@@](C)(c2ccc(Cl)cc2)N1C(=O)N1CCN(C2CCS(=O)(=O)C2)CC1` (stereo partly drawn) [Example 51, 5-{(4S,5R)-4,5-Bis-(4-chloro-phenyl)-1-[4-(1,1-dioxo-tetrahydro-thiophen-3-yl)-piperazine-1-carbonyl]-4,5-dimethyl-4,5-dihydro-1H-imidazol-2-yl}-N-tert-butyl-2-chloro-4-ethoxy-benzenesulfonamide], the IC50 is 7 nM in assay [1] and 798 nM in assay [2].

In the case of `CCOc1cc(Cl)c(S(=O)(=O)NC(C)(C)C)cc1C1=N[C@@](C)(c2ccc(Cl)cc2)[C@@](C)(c2ccc(Cl)cc2)N1C(=O)N1CCN(C(=O)Cn2cnnn2)CC1` [Example 52, 5-{(4S,5R)-4,5-Bis-(4-chloro-phenyl)-4,5-dimethyl-1-[4-(2-tetrazol-1-yl-acetyl)-piperazine-1-carbonyl]-4,5-dihydro-1H-imidazol-2-yl}-N-tert-butyl-2-chloro-4-ethoxy-benzene sulfonamide], the IC50 is 17.3 nM in assay [1] and 3760 nM in assay [2].

For the compound `CCOc1cc(Cl)c(S(=O)(=O)NC(C)(C)C)cc1C1=N[C@@](C)(c2ccc(Cl)cc2)[C@@](C)(c2ccc(Cl)cc2)N1C(=O)N1CCC(N2CCNC(=O)CC2)CC1` [Example 53, 5-{(4S,5R)-4,5-Bis-(4-chloro-phenyl)-4,5-dimethyl-1-[4-(5-oxo-[1,4]diazepan-1-yl)-piperidine-1-carbonyl]-4,5-dihydro-1H-imidazol-2-yl}-N-tert-butyl-2-chloro-4-ethoxy-benzene sulfonamide], the IC50 in assay [1] is 14.5 nM; in assay [2], 1110 nM.

For `CCOc1cc(Cl)c(S(=O)(=O)NC(C)(C)C)cc1C1=N[C@@](C)(c2ccc(Cl)cc2)[C@@](C)(c2ccc(Cl)cc2)N1C(=O)N1CCCC(O)C1` (stereo partly drawn) [Example 54, 5-[(4S,5R)-4,5-Bis-(4-chloro-phenyl)-1-(3-hydroxy-piperidine-1-carbonyl)-4,5-dimethyl-4,5-dihydro-1H-imidazol-2-yl]-N-tert-butyl-2-chloro-4-ethoxy-benzenesulfonamide], the IC50 came out at 16.1 nM in assay [1] and 4000 nM in assay [2].

Consider `CCCOc1cc(Cl)c(S(=O)(=O)N2CCCC2)cc1C1=N[C@@](C)(c2ccc(Cl)cc2)[C@@](C)(c2ccc(Cl)cc2)N1C(=O)N1CCN(CCCS(C)(=O)=O)CC1` [Example 55, {(4S,5R)-4,5-Bis-(4-chloro-phenyl)-2-[4-chloro-2-propoxy-5-(pyrrolidine-1-sulfonyl)-phenyl]-4,5-dimethyl-4,5-dihydro-imidazol-1-yl}-[4-(3-methanesulfonyl-propyl)-piperazin-1-yl]-methanone], for which the half-maximal inhibitory concentration (IC50) in assay [1] turned out to be 18.1 nM; in assay [2], 3940 nM.

Regarding `CCOc1cc(Cl)c(S(=O)(=O)N2CCCC2)cc1C1=N[C@@](C)(c2ccc(Cl)cc2)[C@@](C)(c2ccc(Cl)cc2)N1C(=O)N1CCC(CC(N)=O)CC1` [Example 56, 2-{1-[(4S,5R)-2-[4-Chloro-2-ethoxy-5-(pyrrolidine-1-sulfonyl)-phenyl]-4,5-bis-(4-chloro-phenyl)-4,5-dimethyl-4,5-dihydro-imidazole-1-carbonyl]-piperidin-4-yl}-acetamide], the concentration for half-maximal inhibition (IC50) in assay [1] is 8.5 nM; in assay [2], 3430 nM.

On to `CCOc1cc(Cl)c(S(=O)(=O)N2CCOCC2)cc1C1=N[C@@](C)(c2ccc(Cl)cc2)[C@@](C)(c2ccc(Cl)cc2)N1C(=O)N1CCN(CCCS(C)(=O)=O)CC1` [Example 57, [(4S,5R)-2-[4-Chloro-2-ethoxy-5-(morpholine-4-sulfonyl)-phenyl]-4,5-bis-(4-chloro-phenyl)-4,5-dimethyl-4,5-dihydro-imidazol-1-yl]-[4-(3-methanesulfonyl-propyl)-piperazin-1-yl]-methanone], for which the IC50 came to 40 nM in assay [1] and 1640 nM in assay [2].

`CC(C)Oc1cc(Cl)c(S(=O)(=O)N2CCCC2)cc1C1=N[C@@](C)(c2ccc(Cl)cc2)[C@@](C)(c2ccc(Cl)cc2)N1C(=O)N1CCN(CCCS(C)(=O)=O)CC1` [Example 58, [(4S,5R)-2-[4-Chloro-2-isopropoxy-5-(pyrrolidine-1-sulfonyl)-phenyl]-4,5-bis-(4-chloro-phenyl)-4,5-dimethyl-4,5-dihydro-imidazol-1-yl]-[4-(3-methanesulfonyl-propyl)-piperazin-1-yl]-methanone]: the IC50 is 4.6 nM in assay [1] and 232 nM in assay [2].

`CC(C)Oc1cc(Cl)c(S(=O)(=O)N2CCCC2)cc1C1=N[C@@](C)(c2ccc(Cl)cc2)[C@@](C)(c2ccc(Cl)cc2)N1C(=O)N1CCC(CC(N)=O)CC1` [Example 59, 2-{1-[(4S,5R)-2-[4-Chloro-2-isopropoxy-5-(pyrrolidine-1-sulfonyl)-phenyl]-4,5-bis-(4-chloro-phenyl)-4,5-dimethyl-4,5-dihydro-imidazole-1-carbonyl]-piperidin-4-yl}-acetamide]: the IC50 in assay [1] was determined as 5.8 nM; in assay [2], 195 nM.

Regarding `CC(C)Oc1cc(Cl)c(S(=O)(=O)NC(C)(C)C)cc1C1=N[C@@](C)(c2ccc(Cl)cc2)[C@@](C)(c2ccc(Cl)cc2)N1C(=O)N1CCC(CC(N)=O)CC1` [Example 60, 2-{1-[(4S,5R)-2-(5-tert-Butylsulfamoyl-4-chloro-2-isopropoxy-phenyl)-4,5-bis-(4-chloro-phenyl)-4,5-dimethyl-4,5-dihydro-imidazole-1-carbonyl]-piperidin-4-yl}-acetamide], the IC50 in assay [1] was found to be 15 nM; in assay [2] it was 570 nM.

For `CC(C)Oc1cc(Cl)c(S(=O)(=O)N2C[C@H]3CC[C@@H](C2)O3)cc1C1=N[C@@](C)(c2ccc(Cl)cc2)[C@@](C)(c2ccc(Cl)cc2)N1C(=O)N1CCC(CC(N)=O)CC1` [Example 61, 2-{1-[(4S,5R)-2-{4-Chloro-2-isopropoxy-5-[(1R,5S)-(8-oxa-3-aza-bicyclo[3.2.1]oct-3-yl)sulfonyl]-phenyl}-4,5-bis-(4-chloro-phenyl)-4,5-dimethyl-4,5-dihydro-imidazole-1-carbonyl]-piperidin-4-yl}-acetamide], the IC50 in assay [1] is 9.1 nM; in assay [2], 267 nM.
